Where two headings read alike, the source gives them in different places.
Target: T1, human CXCR3 (N-delta 4) (Homo sapiens, UniProt P49682)
T1 construct: CD8 leader; Flag tag; expressed in transfected cells; membrane preparation
T1 sequence (P49682 5-368 limits assumed): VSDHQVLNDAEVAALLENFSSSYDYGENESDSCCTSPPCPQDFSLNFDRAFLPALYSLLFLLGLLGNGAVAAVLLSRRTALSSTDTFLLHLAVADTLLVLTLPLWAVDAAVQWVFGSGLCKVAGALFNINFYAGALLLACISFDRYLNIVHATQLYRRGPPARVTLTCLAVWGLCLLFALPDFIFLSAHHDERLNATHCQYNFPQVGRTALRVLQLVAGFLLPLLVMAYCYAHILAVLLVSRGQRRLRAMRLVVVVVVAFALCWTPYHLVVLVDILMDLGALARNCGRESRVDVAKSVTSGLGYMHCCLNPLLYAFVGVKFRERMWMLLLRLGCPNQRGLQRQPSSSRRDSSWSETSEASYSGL
Assay: Human CXCR3 (N-delta 4) scintillation proximity binding assay ([125I] IP-10 displacement)
Source text: The inventive compounds can readily be evaluated to determine activity at The CXCR3 receptors by known methods, such as, for example, Development of Human CXCR3 (N-delta 4) Binding Assay.
Cloning and Expression of Human CXCR3 (N-Delta 4):
The DNA encoding human CXCR3 was cloned by PCR using human genomic DNA (Promega, Madison, Wis.) as a template. The PCR primers were designed based on the published sequence of human orphan receptor GPR9 (1) with incorporated restriction sites, a Kozak consensus sequence, CD8 leader and Flag tag. The PCR product was subcloned into the mammalian expression vector pME18Sneo, a derivative of the SR-alpha expression vector (designated as pME18Sneo-hCXCR3 (N-delta 4).
IL-3-dependent mouse pro-B cells Ba/F3 were transfected by electroporation in 0.4 ml Dulbecco's PBS containing 4×10^6 cells with 20 μg of pME18Sneo-hCXCR3 (N-delta 4) plasmid DNA. Cells were pulsed at 400 Volts, 100 OHMs, 960 μFd. The transfected cells were under selection with 1 mg/ml G418 (Life Technologies, Gaithersburg, Md.). G418-resistant Ba/F3 clones were screened for CXCR3 expression by specific binding of [^125I] IP-10 (NEN Life Science Products, Boston, Mass.).
Preparation of Ba/F3-hCXCR3 (N-Delta 4) Membranes
Ba/F3 cells expressing human CXCR3 (N-delta 4) were pelleted and resuspended in the lysis buffer containing 10 mM HEPES, pH 7.5 and Complete® protease inhibitors (1 tablet per 100 ml) (Boehringer Mannheim, Indianapolis, Ind.) at a cell density of 20×10^6 cells per ml. After 5 minutes incubation on ice, cells were transferred to 4639 cell disruption bomb (Parr Instrument, Moline, Ill.) and applied with 1,500 psi of nitrogen for 30 minutes on ice. Large cellular debris was removed by centrifugation at 1,000×g. Cell membrane in the supernatant was sedimented at 100,000×g. The membrane was resuspended in the lysis buffer supplemented with 10% sucrose and stored at −80° C. Total protein concentration of the membrane was determined by BCA method from Pierce (Rockford, Ill.).
Human CXCR3 (N-Delta 4) Scintillation Proximity Assay (SPA)
For each assay point, 2 μg of membrane was preincubated for 1 hr with 300 μg wheat germ agglutinin (WGA) coated SPA beads (Amersham, Arlington Heights, Ill.) in the binding buffer (50 mM HEPES, 1 mM CaCl2, 5 mM MgCl2, 125 mM NaCl, 0.002% NaN3, 1.0% BSA) at room temperature. The beads were spun down, washed once, resuspended in the binding buffer and transferred to a 96-well Isoplate (Wallac, Gaithersburg, Md.). 25 pM of [^125I] IP-10 with tested compounds in a series of titration were added to start the reaction. After 3 hr reaction at room temperature, the amount of [^125I]; IP-10 bound to the SPA beads was determined with a Wallac 1450 Microbeta counter.

[1] = human CXCR3, Table 1, read-out: Ki rating
[2] = Human CXCR3, Table 2, read-out: Ki

SMILES	Ki [1] [nM]	Ki (human CXCR3, read-out: Ki) [nM]	Ki [2] [nM]
CCNc1nnc(-c2ccc(N3CCN(C4CCN(Cc5ccc(Cl)cc5)CC4)[C@@H](CC)C3)c(C)n2)o1 [Compound 1]	< 25	0.2	
CCNc1nnc(-c2ccc(N3C[C@H](CC)N(C4CCN(Cc5ccc(Cl)cc5)CC4)C[C@H]3C)c(C)n2)o1 [Compound 2]	< 25		0.4
CC[C@H]1CN(c2ccc(-c3nnc(N)o3)nc2C)CCN1C1CCN(Cc2ccc(OC(F)(F)F)cc2)CC1 [Compound 3]	< 25		0.5
CCNc1nnc(-c2ccc(N3CCN(C4CCN(C(=O)c5ccc(Cl)cc5)CC4)[C@@H](CC)C3)c(C)n2)o1 [Compound 4]	< 25		
CCNc1nnc(-c2ccc(N3CCN(C4CCN(C(=O)c5ccc(Cl)c(F)c5)CC4)[C@@H](CC)C3)c(C)n2)o1 [Compound 5]	< 25		
CC[C@H]1CN(c2ccc(-c3nnc[nH]3)nc2C)CCN1C1CCN(C(=O)c2ccc(Cl)c(F)c2)CC1 [Compound 6]	< 25		
CC[C@H]1CN(c2ccc(-c3nnc(N)o3)nc2C)CCN1C1CCN(C(=O)c2ccc(Cl)c(F)c2)CC1 [Compound 7]	< 25		
CCNc1nnc(-c2ccc(N3CCN(C4CCN(C(=O)c5ccc(F)c(F)c5)CC4)[C@@H](CC)C3)c(C)n2)o1 [Compound 8]	< 25		
CC[C@H]1CN(c2ccc(-c3nnc(N)o3)nc2C)CCN1C1CCN(C(=O)c2ccc(F)c(F)c2)CC1 [Compound 9]	< 25		
CCNc1nnc(-c2ccc(N3C[C@H](CC)N(C4CCN(C(=O)c5ccc(Cl)c(F)c5)CC4)C[C@H]3C)c(C)n2)o1 [Compound 10]	25 to 100		
CCNc1nnc(-c2ccc(N3C[C@H](CC)N(C4CCN(C(=O)c5ccc(Cl)cc5)CC4)C[C@H]3C)c(C)n2)o1 [Compound 11]	25 to 100		
CC[C@H]1CN(c2ccc(-c3nnc(N)o3)nc2C)[C@H](C)CN1C1CCN(C(=O)c2ccc(Cl)cc2)CC1 [Compound 12]	25 to 100		
CC[C@H]1CN(c2ccc(-c3nnc(N)o3)nc2C)[C@H](C)CN1C1CCN(C(=O)c2ccc(Cl)c(F)c2)CC1 [Compound 13]	25 to 100		
CC[C@H]1CN(c2ccc(-c3nnc(N)o3)nc2C)CCN1C1CCN(Cc2ccc(Cl)cc2)CC1 [Compound 14]	< 25		0.3
CC[C@H]1CN(c2ccc(-c3nnc(N)o3)nc2C)CCN1C1CCN(C(=O)c2ccc(Cl)cc2)CC1 [Compound 15]	< 25		2.4

Reference: patent publication US7786124B2, “Heterocyclic substituted pyridine compounds with CXCR3 antagonist activity” (Schering Corporation, priority 2006, dated 2010)
